Experimental data from paper PMC9506254, “Self-Emulsifying Formulations to Increase the Oral Bioavailability of 4,6,4′-Trimethylangelicin as a Possible Treatment for Cystic Fibrosis” (Pharmaceutics, 2022).

Columns and labels:
[1] = In vivo pharmacokinetics after oral gavage; details: mice
Procedure: All the experimental procedures involving animals were conducted in compliance with national and international guidelines for the handling and use of experimental animals (Authorization no. 853-2018-PR, 11 November 2018) and appropriately designed to minimize their pain or discomfort. All the animals were maintained in IVC cages under controlled conditions, with a 12/12 h dark/light cycle and free access to food and drink. For the pharmacokinetic analysis, a 20 mg/kg dose of TMA, suspended in water or dissolved in formulations A.1 and B.1, was administered to mice by oral gavage, after an overnight fast. Plasma samples (n = 3 per time point) were collected from the submandibular plexus before and 0.25, 0.5, 1, 2, 3, 4, 6, 24, and 48 h after the administration of TMA. The main PK parameters were calculated by means of the Microsoft Excel plug-in PK Solver, using standard formulae [25]. The data were analyzed using the software GraphPad Prism 8.0 (GraphPad Software Inc., San Diego, CA, USA) ver. 8.0, and, if not otherwise stated, are expressed as mean ± SD. Statistical analysis was performed using Student’s t test or one-way ANOVA, when appropriate, and p < 0.05 was considered statistically significant.
TMA was extracted from the samples by treating 100 µL of plasma with 300 µL of cold acetonitrile spiked with 80 nM of IS, and then the samples were centrifuged for 10 min at 12,000× g (Hettich Mikro 120 benchtop centrifuge) and 25 °C. 10 μL of the supernatant were injected into the UHPLC system. The quantification of TMA was carried out by external calibration of the normalized signals using a seven-point calibration curve obtained by spiking blank plasma with TMA in the range 20–3000 nM. […] The metabolites related to TMA were quantified in plasma by comparing the normalized area with the TMA calibration curve as there were no suitable analytical standards available. The data obtained should be considered semiquantitative, as it is not possible to ensure the same molar response factor for TMA and its metabolites under electrospray conditions.

[2] = Metabolic stability with human liver microsomes; type: in vitro ADME; details: 1 µM, 37 °C, NADPH, pH 7.4
Procedure: The metabolic stability of TMA was assessed by incubating the compound with human liver microsomes (HLMs) (BD Bioscience, Franklin Lakes, NJ, USA), as already described. Briefly, TMA was dissolved in DMSO (1 µM) and incubated at 37 °C for 10 and 30 min in 0.1 M phosphate buffer containing 200 µg of microsomes and 10 mM NADPH, pH 7.4. At the end of incubation, the reaction was stopped by addition of 200 µL cold acetonitrile. After centrifugation for 10 min at 12,000× g (Hettich Mikro 120 benchtop centrifuge), supernatants were collected and analyzed by means of ultra-high pressure liquid chromatography coupled to high-resolution mass spectrometry (UHPLC-HRMS) to assess metabolic stability of TMAas described in Section 2.8.1. […]
The UHPLC-HRMS system was equipped with Agilent 1260 Infinity II LC System coupled to an Agilent 6545 LC/Q-TOF mass analyzer (Agilent Technologies, Palo Alto, Santa Clara, CA, USA). […] The mobile phase gradient profile was as follows (t in min): t0–3 2% B; t3–18 2–100% B, t18–20 100% B; t20–30 0% B. The MS conditions were: electrospray (ESI) ionization in positive mode, gas temperature 325 °C, drying gas 10 L/min, nebulizer 20 psi, sheath gas temperature 400 °C, sheath gas flow 12 L/min, VCap 4000 V, nozzle voltage 0 V, fragmentor 180 V. Centroid full scan mass spectra were recorded in the range 100–1000 m/z with a scan rate of 1 spectrum/s. […]

[3] = Lipophilicity (Log p) and BCS classification from the literature; type: physicochemical; details: inferred from Log p and low water solubility
[4] = In vitro dissolution test in simplified FaSSIF and FeSSIF; type: physicochemical; details: FeSSIF compared with FaSSIF
Procedure: In vitro drug dissolution tests were performed using the USP 24 method with a dissolution apparatus 2 (Sotax AT7 Smart, Sotax, Allschwil, Switzerland) at 100 rpm. Dissolution tests were carried out under sink conditions at 37 ± 0.5 °C in 900 mL of two simplified simulated intestinal fluids to simulate the fed and fasted states. The composition of simplified FaSSIF (fasted-state simulated intestinal fluid) and FeSSIF (fed-state simulated intestinal fluid) buffers were those reported by Zoeller and Klein [24]. Samples (1 mL) were withdrawn at 5, 10, 15, 30, 45, 60, 90, 120, 240, and 300 min and the volume removed was replaced with an equal volume of temperature-equilibrated media. The samples were filtered through a 0.45 µm acetate cellulose filter and the TMA concentration was determined by HPLC-UV using the method reported in Section 2.3. The results were averaged from three replicated experiments.

[5] = Solubility of TMA in oils, surfactants, co-surfactants/co-solvents; type: physicochemical; details: 25 °C, 24 h, n = 3
Procedure: The solubility of TMA in different oils, surfactants, co-surfactants/co-solvent was determined by pouring an excess of TMA in a 2 mL glass vial containing 1 g of each excipient. The mixtures were vortexed and kept at 25 °C for 24 h, and then the samples were centrifuged at 15,000× g rpm for 10 min to remove the undissolved drug. The supernatant was diluted with a suitable solvent and the TMA was quantified by HPLC (Agilent 1220 Infinity LC, Agilent Technologies, Santa Clara, CA, USA) equipped with a UV-vis detector and a Zorbax 300SB C 18 column (4.6 × 250 mm, 5 µm, Agilent Technologies, Santa Clara, CA, USA). For the analysis of the organic solutions of TMA, a volume of 20 µL was injected into the column and a mixture of methanol and water (95:5) was used as mobile phase with a flow rate of 0.8 mL/min. Instead, for the analysis of aqueous solutions, 100 µL of sample was injected and a mixture 75:25 of methanol and water was used as mobile phase at a flow rate of 0.9 mL/min. The UV was set at a wavelength of 251 nm.

[6] = 20 mg/kg TMA, oral gavage, overnight fast, plasma TMA, mean ± S.D.

| Compound | CL/F ([1]; 20 mg/kg TMA, oral gavage, overnight fast, mean ± S.D.) | AUC0-inf [1, 6] | Cmax [1, 6] | Tmax [1, 6] | t1/2 [1, 6] | Initial amount of TMA metabolized by HLM enzymes ([2]; 10 min) | Degradation of TMA by HLM enzymes ([2]; 30 min) | BCS classification system class [3] | Amount of free TMA dissolved [4] | TMA Solubility ([5]; in Capryol PGMC (co-surfactant)) | TMA Solubility ([5]; in Cremophor EL (surfactant)) | TMA Solubility ([5]; in Ethanol (co-solvent)) | TMA Solubility ([5]; in Labrafac Lipophile WL1349 (oil)) | TMA Solubility ([5]; in Lauroglycol FCC (co-surfactant)) | TMA Solubility ([5]; in Maisine CC (oil)) | TMA Solubility ([5]; in Transcutol HP (co-solvent)) | TMA Solubility ([5]; in Tween 80 (surfactant)) | TMA-related metabolites in mouse plasma ([1]; 20 mg/kg TMA oral, semiquantitative, TMA calibration curve, LOD about 10 nM) |
| --- | --- | --- | --- | --- | --- | --- | --- | --- | --- | --- | --- | --- | --- | --- | --- | --- | --- | --- |
| Cc1cc(=O)oc2c1cc(C)c1occ(C)c12 [TMA, 4,6,4′-trimethylangelicin] | 0.073 ± 0.029 mL/h/g | 297.83 ± 119.13 nmol·h/L | 186 ± 21.1 nM | 22.8 ± 10.8 min | 1.71 ± 0.16 h | 67 ± 15% | 90 ± 15% | class II | increases significantly | 7346 ± 380 µg/mL | 9091 ± 217 µg/mL | 2509 ± 52 µg/mL | 4639 ± 170 µg/mL | 6484 ± 92 µg/mL | 6340 ± 377 µg/mL | 9568 ± 131 µg/mL | 7040 ± 120 µg/mL |  |
| TMA-D |  |  |  |  |  |  |  |  |  |  |  |  |  |  |  |  |  | main metabolite |
